Values joined by “and” are separate entries in the source; they are usually repeats but may differ in a detail not shown here. Equal values may be shown once.
Test system: BDF1 mice, Adenocarcinoma 755 s.c., tumor weight T/C
Assay: NCI In Vivo Anticancer Drug Screen. Data for tumor model Adenocarcinoma 755 (subcutaneous) in B6D2F1 (BDF1) mice
Settings: endpoint: mean tumor weight, schedule: Q01DX011 (ip), higher = larger tumour
Method in brief: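 Values express treated (T) relative to vehicle-dosed control (C) animals, based on survival or tumour size measured after compound treatment of mice bearing a transplanted tumour.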

[1] = dose: 15.0 mg/kg/injection, vehicle: methylcellulose (MC)
[2] = dose: 25.0 mg/kg/injection, vehicle: methylcellulose (MC)
[3] = dose: 0.25 mg/kg/injection, vehicle: carboxymethylcellulose (CMC)
[4] = dose: 1.0 mg/kg/injection, vehicle: carboxymethylcellulose (CMC)
[5] = dose: 15.0 mg/kg/injection, vehicle: carboxymethylcellulose (CMC)
[6] = dose: 30.0 mg/kg/injection, vehicle: carboxymethylcellulose (CMC)
[7] = dose: 60.0 mg/kg/injection, vehicle: carboxymethylcellulose (CMC)

With `O=C(Nc1ccc(C2=NCCN2)cc1)c1cccc(C(=O)Nc2ccc(C3=NCCN3)cc2)c1` the T/C (dose: 9.0 mg/kg/injection, vehicle: water) was 110 % of control, the T/C (dose: 9.4 mg/kg/injection, vehicle: carboxymethylcellulose (CMC)) was 76 % of control and the T/C (dose: 12.0 mg/kg/injection, vehicle: water) was 165 % of control. For the same compound, the T/C [1] was 86 % of control, the T/C (dose: 18.0 mg/kg/injection, vehicle: water) was 108 % of control and the T/C (dose: 18.75 mg/kg/injection, vehicle: carboxymethylcellulose (CMC)) was 60 % of control. The T/C (dose: 25.0 mg/kg/injection, vehicle: water) was 60 % of control, the T/C (dose: 30.0 mg/kg/injection, vehicle: methylcellulose (MC)) was 64 % of control and the T/C (dose: 37.5 mg/kg/injection, vehicle: water) was 47 % of control. The T/C (dose: 50.0 mg/kg/injection, vehicle: water) was 59 % of control, the T/C (dose: 60.0 mg/kg/injection, vehicle: methylcellulose (MC)) was 67 % of control and the T/C (dose: 120.0 mg/kg/injection, vehicle: methylcellulose (MC)) was 37 % of control.
`Nc1nc(SCc2ccccc2)c2ncn(C3CCCCC3)c2n1` was tested, and the T/C [2] was 113 % of control, the T/C (dose: 75.0 mg/kg/injection, vehicle: methylcellulose (MC)) was 121 % of control and the T/C (dose: 225.0 mg/kg/injection, vehicle: methylcellulose (MC)) was 210 % of control.
With `Cc1cnc(SCc2ccc(Cl)cc2Cl)nc1Nc1ccc(Cl)c(Cl)c1` the T/C [1] was 74 % of control, the T/C (dose: 31.0 mg/kg/injection, vehicle: methylcellulose (MC)) was 97 % of control and the T/C (dose: 62.0 mg/kg/injection, vehicle: methylcellulose (MC)) was 69 % of control.
For `CCCCSc1ncnc2nc[nH]c12`, the T/C [3] was 119 % of control, the T/C [4] was 121 % of control and the T/C (dose: 4.0 mg/kg/injection, vehicle: carboxymethylcellulose (CMC)) was 62 % of control. The T/C [5] was 4 % of control and 9 % of control and the T/C (dose: 62.0 mg/kg/injection, vehicle: carboxymethylcellulose (CMC)) was 4 % of control.
With `NC(=O)c1ccc(NC(=O)CCC(=O)Nc2ccc(C(N)=O)cn2)nc1` the T/C [3] was 83 % of control, the T/C (dose: 0.5 mg/kg/injection, vehicle: carboxymethylcellulose (CMC)) was 93 % of control and the T/C [4] was 80 % of control. The T/C (dose: 2.0 mg/kg/injection, vehicle: carboxymethylcellulose (CMC)) was 33 % of control, the T/C (dose: 2.5 mg/kg/injection, vehicle: carboxymethylcellulose (CMC)) was 16 % of control and the T/C (dose: 5.0 mg/kg/injection, vehicle: carboxymethylcellulose (CMC)) was 7 % of control.
`Nc1nc(SCC(=O)c2ccccc2)c2[nH]cnc2n1` was tested, and the T/C (dose: 0.46 mg/kg/injection, vehicle: saline) was 95 % of control, the T/C (dose: 0.93 mg/kg/injection, vehicle: saline) was 91 % of control and the T/C (dose: 1.87 mg/kg/injection, vehicle: saline) was 75 % of control. For the same compound, the T/C (dose: 15.0 mg/kg/injection, vehicle: saline) was 6 % of control, the T/C (dose: 30.0 mg/kg/injection, vehicle: saline) was 4 % of control and 6 % of control and the T/C (dose: 60.0 mg/kg/injection, vehicle: saline) was 4 % of control and 12 % of control. The T/C (dose: 120.0 mg/kg/injection, vehicle: saline) was 2 % of control and the T/C (dose: 240.0 mg/kg/injection, vehicle: saline) was 2 % of control.
In the case of `CCCCCCCCOc1nc(N)nc2n[nH]nc12`, the T/C (dose: 50.0 mg/kg/injection, vehicle: carboxymethylcellulose (CMC)) is reported as 112 % of control, the T/C (dose: 100.0 mg/kg/injection, vehicle: carboxymethylcellulose (CMC)) is reported as 69 % of control and the T/C (dose: 200.0 mg/kg/injection, vehicle: carboxymethylcellulose (CMC)) is reported as 57 % of control.
For `CC[C@]1(O)C[C@H]2CN(CCc3c([nH]c4ccccc34)[C@@](C(=O)OC)(c3cc4c(cc3OC)N(C=O)[C@H]3[C@@](O)(C(=O)OC)[C@H](OC(C)=O)[C@]5(CC)C=CCN6CC[C@]43[C@@H]65)C2)C1`, the T/C (dose: 0.06 mg/kg/injection, vehicle: saline) was 95 % of control, the T/C (dose: 0.12 mg/kg/injection, vehicle: saline) was 173 % of control and the T/C (dose: 0.25 mg/kg/injection, vehicle: saline) was 54 % of control.
For `[N-]=[N+]=NC1(C(=O)O)CCCC1`, the T/C [5] was 109 % of control, the T/C [6] was 100 % of control and the T/C [7] was 120 % of control.
`CC(C)Cn1cnc2c(SCc3cccc(F)c3)nc(N)nc21` was tested, and the T/C (dose: 6.25 mg/kg/injection, vehicle: methylcellulose (MC)) was 75 % of control, the T/C (dose: 12.5 mg/kg/injection, vehicle: methylcellulose (MC)) was 55 % of control and the T/C [2] was 15 % of control. The T/C (dose: 50.0 mg/kg/injection, vehicle: methylcellulose (MC)) was 1 % of control.
In the case of `NC(N)=Nc1nc2ccccc2o1`, the T/C (dose: 55.0 mg/kg/injection, vehicle: methylcellulose (MC)) is reported as 109 % of control, the T/C (dose: 110.0 mg/kg/injection, vehicle: methylcellulose (MC)) is reported as 99 % of control and the T/C (dose: 220.0 mg/kg/injection, vehicle: methylcellulose (MC)) is reported as 94 % of control. For the same compound, the T/C (dose: 330.0 mg/kg/injection, vehicle: methylcellulose (MC)) was 66 % of control and the T/C (dose: 440.0 mg/kg/injection, vehicle: methylcellulose (MC)) was 78 % of control.
`NNC(=O)NC(=O)NN` was tested, and the T/C (dose: 13.06 mg/kg/injection, vehicle: carboxymethylcellulose (CMC)) was 117 % of control, the T/C (dose: 26.13 mg/kg/injection, vehicle: carboxymethylcellulose (CMC)) was 187 % of control and the T/C (dose: 52.25 mg/kg/injection, vehicle: carboxymethylcellulose (CMC)) was 74 % of control. For the same compound, the T/C (dose: 104.5 mg/kg/injection, vehicle: carboxymethylcellulose (CMC)) was 79 % of control, the T/C (dose: 3845.0 micrograms/kg/injection, vehicle: carboxymethylcellulose (CMC)) was 207 % of control and the T/C (dose: 7690.0 micrograms/kg/injection, vehicle: carboxymethylcellulose (CMC)) was 46 % of control.
`O=c1[nH]c(=O)c2nc(Br)n(C3OC(CO)C(O)C3O)c2[nH]1` (stereo unspecified) was tested, and the T/C [6] was 119 % of control, the T/C [7] was 105 % of control and the T/C (dose: 120.0 mg/kg/injection, vehicle: carboxymethylcellulose (CMC)) was 68 % of control. For the same compound, the T/C (dose: 240.0 mg/kg/injection, vehicle: carboxymethylcellulose (CMC)) was 86 % of control.
In the case of `ClCCN(CCCl)c1ccc(/C=C\c2ccnc3ccccc23)cc1`, the T/C [6] is reported as 65 % of control and 75 % of control, the T/C (dose: 115.0 mg/kg/injection, vehicle: carboxymethylcellulose (CMC)) is reported as 47 % of control and 69 % of control and the T/C (dose: 230.0 mg/kg/injection, vehicle: carboxymethylcellulose (CMC)) is reported as 71 % of control.
For `NC(N)=N/N=C/c1c(O)ccc2ccccc12`, the T/C (dose: 12.5 mg/kg/injection, vehicle: saline) was 77 % of control, the T/C (dose: 25.0 mg/kg/injection, vehicle: saline) was 67 % of control and the T/C (dose: 50.0 mg/kg/injection, vehicle: saline) was 54 % of control.

— PubChem BioAssay AID180 (DTP/NCI, 2004)
